Read-outs that look alike come from different tables or passages of the source.
Columns and labels:
[1] = 1 M in PC; platinum working electrode, lithium counter/reference; sweep 10 mV/sec
Text: By use of these nonaqueous electrolytes, the respective oxidation decomposition potential values have been compared using the method described below.

[2] = for improvement of electroconductivity by factor: solvent A, versus lithium bis-salicylate borate (comparative example 1)
[3] = Electroconductivity in fluorinated solvent B (HFE7100/DMC 80:20); assay type: physicochemical; details: for concentration at which maximum electroconductivity was obtained / maximum electroconductivity / electroconductivity (result in words): solvent B: HFE7100/DMC 80:20; for improvement of electroconductivity: solvent B, versus LiN (SO2CF3)2
[4] = solvent B: HFE7100/DMC 80:20; salt dissolved to 0.1 M
[5] = 1 M in PC; versus comparative example 8

Lithium Tetrakis (Trichloroacetate) Borate [LB3]
potential from which significant changes in oxidation current are observed (oxidation decomposition potential) [1]: 6.4 V
concentration at which maximum electroconductivity was obtained ([2]; solvent A: PC/DMC 1:2): 0.5 M
maximum electroconductivity ([2]; solvent A: PC/DMC 1:2): 4.3 mS/cm
improvement of electroconductivity by factor [2]: up to 10

Lithium Tetrakis (Pentafluoropropanoate) Borate [LB2]
potential from which significant changes in oxidation current are observed (oxidation decomposition potential) [1]: 6.5 V
concentration at which maximum electroconductivity was obtained ([2]; solvent A: PC/DMC 1:2): 0.6 M
maximum electroconductivity ([2]; solvent A: PC/DMC 1:2): 5.8 mS/cm
improvement of electroconductivity by factor [2]: up to 13.4
concentration at which maximum electroconductivity was obtained [3]: 0.6 M
maximum electroconductivity [3]: 1.7 mS/cm
improvement of electroconductivity [3]: 2.4 times

lithium bis-benzenediolate [reference compound]
electroconductivity (result in words) [3]: no electroconductivity has been measurable

CC(=O)O[B-](OC(C)=O)(OC(C)=O)OC(C)=O.[Li+] [LB4, Lithium Tetrakis (Acetate) Borate]
electroconductivity of the nonaqueous electrolyte ([2]; solvent A: PC/DMC 1:2, at the dissolved concentration (about 0.1 M)): 0.02 mS/cm

F[B-](F)(F)F.[Li+] [LiBF4, lithium tetrafluoroborate, reference compound]
phase behaviour of the solution [4]: the phase of the solvent has separated into two layers
electroconductivity (result in words) [3]: no electroconductivity has been measurable

Tetraethyl Ammonium Tetrakis (Trifluoroacetate) Borate [AB1]
increase of potential window at the oxidation side [5]: 0.5 V

O=C(O[B-](OC(=O)C(F)(F)F)(OC(=O)C(F)(F)F)OC(=O)C(F)(F)F)C(F)(F)F.[Li+] [LB1, Lithium Tetrakis (Trifluoroacetate) Borate]
potential from which significant changes in oxidation current are observed (oxidation decomposition potential) [1]: 6.7 V
concentration at which maximum electroconductivity was obtained ([2]; solvent A: PC/DMC 1:2): 0.8 M
maximum electroconductivity ([2]; solvent A: PC/DMC 1:2): 7.8 mS/cm
improvement of electroconductivity by factor [2]: up to 18
concentration at which maximum electroconductivity was obtained [3]: 0.8 M
maximum electroconductivity [3]: 1.55 mS/cm
improvement of electroconductivity [3]: 2.2 times

O=S(=O)([N-]S(=O)(=O)C(F)(F)F)C(F)(F)F.[Li+] [LiN (SO2CF3)2, lithium bis-(trifluoromethanesulfonyl)imide, reference compound]
potential from which significant changes in oxidation current are observed (oxidation decomposition potential) [1]: 5.8 V
concentration at which maximum electroconductivity was obtained [3]: 1 M
maximum electroconductivity [3]: 0.69 mS/cm
